Some test systems named below: HCT-116; MDA-MB-435; NCI-H226; 786-0; NCI-H522; EKVX; HOP-92; SF-295; HOP-62; HCT-15; NCI-H460; A498; MCF7; K562; A549; LOX IMVI; UO-31; OVCAR-5; SNB-75; SF-268.
What all share (experiment): NCI-60 cell line screen, 48 h

Here are results for eleven compounds from ChEMBL document CHEMBL1201862, “PubChem BioAssay data set” (2004).

The structures appear in SMILES notation.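 Five compound concentrations were applied to cells in 96-well plates for 48 hours; endpoints were derived by simple linear interpolation of the resulting dose-response curve. GI50 is the concentration that inhibits growth by half.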 Calls of active or inactive are those of the source. Cut-off read from the data, not from the text of the source: active = GI50 up to about 1.1 µM and inactive = higher.

`COc1ccc(C(C)c2cc3c(cc2O)OCO3)cc1` (configuration not stated): the GI50 in the assay on HCT-116 was 15.9 µM (inactive); with MDA-MB-435, 4.56 µM (inactive); in the assay with NCI-H226, 19.7 µM (inactive); with 786-0, 17.9 µM (inactive); in the assay on NCI-H522, 11.4 µM (inactive); in the assay on EKVX, 20.3 µM (inactive). Moreover, the GI50 in the assay with HOP-92 is 16.3 µM (inactive); in the assay on SF-295 it was 14.3 µM (inactive); in the assay on HOP-62 it was 16.4 µM (inactive); in the assay with HCT-15 it was 7.33 µM; with NCI-H460 it was 14.7 µM (inactive); in the assay with A498, 14.8 µM (inactive). Besides, the GI50 with MCF7 is 15.1 µM (inactive); in the assay on K562, 6 µM (inactive); in the assay with A549, 14.7 µM (inactive); in the assay on LOX IMVI it was 13.2 µM (inactive); in the assay with UO-31, 16.2 µM (inactive); in the assay on OVCAR-5 it was 20.6 µM (inactive). Further, the GI50 in the assay with SNB-75 is 20.3 µM (inactive); in the assay with SF-268, 14.9 µM (inactive).

Turning to `Cc1cc(S(=O)(=O)Nc2n[nH]c(-c3ccc(Cl)cn3)n2)c(S)cc1Cl`, the GI50 with HCT-116 is 38.6 µM (inactive); in the assay on MDA-MB-435, 43.1 µM (inactive); in the assay with NCI-H226, 33.4 µM (inactive); with 786-0, 47.6 µM (inactive); with NCI-H522, 46.1 µM (inactive); with EKVX, > 100 µM (inactive). For the same compound, the GI50 in the assay with HOP-92 was 9.04 µM (inactive); with HOP-62 it was 76.6 µM (inactive); in the assay on HCT-15, 70.1 µM; in the assay on NCI-H460 it was 36.9 µM (inactive); with A498, 87.3 µM (inactive); in the assay on MCF7 it was 74.1 µM (inactive). In addition, the GI50 was 62.7 µM (inactive) in the assay with A549; > 100 µM (inactive) with LOX IMVI; 29.5 µM (inactive) with UO-31; > 100 µM (inactive) with OVCAR-5; 80.9 µM (inactive) with SNB-75; 54.7 µM (inactive) in the assay on SF-268.

Take `N#Cc1c(N)oc(-c2ccc([N+](=O)[O-])cc2)c1C#N`: the GI50 is 29.2 µM (inactive) with HCT-116; 47.4 µM (inactive) with MDA-MB-435; 17.9 µM (inactive) with NCI-H226; 30.1 µM (inactive) in the assay on 786-0; 21.4 µM (inactive) with NCI-H522; 8.67 µM (inactive) in the assay on EKVX. In addition, the GI50 in the assay on HOP-92 was 24.1 µM (inactive); in the assay with SF-295 it was 19.2 µM (inactive); in the assay with HOP-62, 24.5 µM (inactive); in the assay on HCT-15, 23.4 µM; in the assay with A498 it was 22.1 µM (inactive); with MCF7 it was 35 µM (inactive). Further, the GI50 in the assay with A549 was 23 µM (inactive); in the assay with LOX IMVI, 44.2 µM (inactive); in the assay on UO-31, 19.1 µM (inactive); in the assay on OVCAR-5, 69.8 µM (inactive); in the assay on SNB-75, 17.7 µM (inactive); in the assay with SF-268, 19.5 µM (inactive).

Regarding `CCOP(=O)(CN1CCNCCNCC1)OCC`, the GI50 with HCT-116, with MDA-MB-435, with NCI-H226, in the assay with 786-0, in the assay on NCI-H522 and in the assay with EKVX was > 100 µM (inactive) in each case. The GI50 in the assay on HOP-92 is > 100 µM (inactive); in the assay on SF-295 it was > 100 µM (inactive); in the assay with HOP-62 it was > 100 µM (inactive); in the assay with HCT-15 it was above 100 µM; in the assay with NCI-H460, > 100 µM (inactive); in the assay with A498, > 100 µM (inactive). For the same compound, the GI50 in the assay on MCF7, in the assay with K562, in the assay on A549, in the assay on LOX IMVI, with UO-31 and in the assay on OVCAR-5 was > 100 µM (inactive) in each case. In addition, in the assay with SNB-75, the GI50 is 26.6 µM (inactive).

Consider `CCC(=O)O[C@H]1CC[C@H]2[C@@H]3CCC4=C/C(=N/NC(=O)c5cccc6c(=O)c7ccccc7[nH]c56)CC[C@]4(C)[C@H]3CC[C@]12C`, for which the GI50 was > 25 µM (inactive) in the assay on MDA-MB-435; > 25 µM (inactive) with NCI-H226; 5.11 µM (inactive) in the assay with 786-0; > 25 µM (inactive) in the assay on NCI-H522; > 25 µM (inactive) in the assay on EKVX; > 25 µM (inactive) in the assay with HOP-92. The GI50 was > 25 µM (inactive) in the assay on SF-295; > 25 µM (inactive) in the assay with HOP-62; above 25 µM in the assay with HCT-15; > 25 µM (inactive) in the assay with NCI-H460; > 25 µM (inactive) with A498; > 25 µM (inactive) in the assay with MCF7. For the same compound, the GI50 in the assay with K562 is > 25 µM (inactive); in the assay on A549, > 25 µM (inactive); in the assay on LOX IMVI, 10.1 µM (inactive); in the assay with UO-31 it was > 25 µM (inactive); with OVCAR-5, > 25 µM (inactive); in the assay on SNB-75, > 25 µM (inactive). For the same compound, in the assay on SF-268, the GI50 is > 25 µM (inactive).

As for `Nc1nc(N)c2ncn(Cc3ccccc3CCl)c2n1`, the GI50 in the assay with HCT-116, in the assay on MDA-MB-435, with NCI-H226, with 786-0, in the assay with NCI-H522 and in the assay on EKVX was > 100 µM (inactive) in each case. Besides, the GI50 in the assay on HOP-92 was > 100 µM (inactive); in the assay on SF-295, > 100 µM (inactive); with HOP-62, > 100 µM (inactive); in the assay with HCT-15, above 100 µM; in the assay with NCI-H460 it was > 100 µM (inactive); with A498, > 100 µM (inactive). Further, the GI50 with MCF7 was > 100 µM (inactive); in the assay on K562 it was 50.4 µM (inactive); with A549, > 100 µM (inactive); with UO-31, > 100 µM (inactive); in the assay on OVCAR-5, > 100 µM (inactive); in the assay with SNB-75 it was > 100 µM (inactive). In addition, the GI50 in the assay on SF-268 is > 100 µM (inactive).

`C/C(=N\Nc1nc2ccccc2n1C)c1ccc2ccccc2n1`: the GI50 was 0.791 µM (active) with HCT-116; 4.24 µM (inactive) in the assay on MDA-MB-435; 1.87 µM (inactive) in the assay with NCI-H226; 1.99 µM (inactive) in the assay on 786-0; 0.416 µM (active) in the assay on NCI-H522; 0.144 µM (active) in the assay with EKVX. Besides, the GI50 with HOP-92 is 2.48 µM (inactive); in the assay on SF-295, 2.21 µM (inactive); with HOP-62, 3.13 µM (inactive); with NCI-H460, 2.56 µM (inactive); with A498, 3.69 µM (inactive); in the assay on MCF7, 0.406 µM (active). The GI50 with K562 is 2.07 µM (inactive); with A549 it was 2.71 µM (inactive); with LOX IMVI, 1.64 µM (inactive); in the assay with UO-31, 1.04 µM (active); with OVCAR-5, 1.53 µM (inactive); in the assay on SNB-75, 7.24 µM (inactive). For the same compound, in the assay on SF-268, the GI50 is 2.87 µM (inactive).

`O=C(NNS(=O)(=O)c1ccccc1)c1csc(NC(=S)NC2CCCCC2)n1`: the GI50 is 18.1 µM (inactive) in the assay with HCT-116; 20.6 µM (inactive) in the assay with MDA-MB-435; 67.5 µM (inactive) in the assay with NCI-H226; 15.4 µM (inactive) with 786-0; 26.2 µM (inactive) in the assay with NCI-H522; 35.6 µM (inactive) in the assay with EKVX. Besides, the GI50 with HOP-92 is 55.2 µM (inactive); in the assay with SF-295, 32.1 µM (inactive); with HOP-62, 58.3 µM (inactive); in the assay with HCT-15, 41.6 µM; in the assay with A498, 80.5 µM (inactive); with MCF7, 41 µM (inactive). Also, the GI50 with K562 is 56.6 µM (inactive); with A549, 35.2 µM (inactive); with LOX IMVI, 17.1 µM (inactive); with UO-31, 23.9 µM (inactive); with OVCAR-5, 52.1 µM (inactive); in the assay with SNB-75, 32.8 µM (inactive). The GI50 in the assay with SF-268 was 22 µM (inactive).

Turning to `Cc1cn(C2OC(CO[Si](C)(C)C(C)(C)C)C(N(C)O[Si](C)(C)C(C)(C)C)C2[Se]c2ccccc2)c(=O)[nH]c1=O` (configuration not stated), the GI50 with HCT-116 is 3.56 µM (inactive); in the assay on MDA-MB-435 it was 3.79 µM (inactive); in the assay on NCI-H226, 3.95 µM (inactive); with 786-0, 2.89 µM (inactive); with NCI-H522, 3.25 µM (inactive); in the assay with HOP-92, 1.9 µM (inactive). The GI50 with SF-295 is 4.15 µM (inactive); in the assay with HOP-62, 4.76 µM (inactive); with HCT-15, 4.59 µM; in the assay with A498, 14.9 µM (inactive); in the assay with MCF7, 4.71 µM (inactive); with K562 it was 7.59 µM (inactive). The GI50 is 4.48 µM (inactive) in the assay on A549; 2.94 µM (inactive) with LOX IMVI; 3.23 µM (inactive) with UO-31; 2.82 µM (inactive) in the assay on OVCAR-5; 4.79 µM (inactive) in the assay on SNB-75; 2.75 µM (inactive) in the assay with SF-268.

On to `Cc1cc(C)c2c(=N)c3ccccc3n(CCCCCCO)c2n1`, for which the GI50 with HCT-116 was 3.11 µM (inactive); in the assay on MDA-MB-435, 4.38 µM (inactive); in the assay with NCI-H226, 3.87 µM (inactive); with 786-0, 2.47 µM (inactive); in the assay with NCI-H522 it was 1.44 µM (inactive); in the assay with EKVX, 2.82 µM (inactive). Moreover, the GI50 in the assay on HOP-92 was 4.26 µM (inactive); in the assay on SF-295, 3.36 µM (inactive); in the assay with HOP-62, 4.53 µM (inactive); with HCT-15, 2.88 µM; with NCI-H460, 1.69 µM (inactive); in the assay on A498, 10.5 µM (inactive). For the same compound, the GI50 with MCF7 was 2.11 µM (inactive); in the assay on A549, 3.3 µM (inactive); in the assay on LOX IMVI, 1.91 µM (inactive); in the assay with UO-31, 1.63 µM (inactive); in the assay on OVCAR-5, 4.91 µM (inactive); in the assay on SNB-75 it was 1.88 µM (inactive). Further, the GI50 in the assay with SF-268 is 3.62 µM (inactive).

For the compound `O=C(COc1ccc(Cl)c(Cl)c1)Nc1ccc[n+](Cc2ccc(S(=O)(=O)F)c(Cl)c2)c1`, the GI50 with HCT-116, in the assay with MDA-MB-435, in the assay with NCI-H226, in the assay with 786-0, with NCI-H522 and in the assay with EKVX was > 100 µM (inactive) each time. Moreover, the GI50 in the assay with HOP-92 is > 100 µM (inactive); with SF-295, > 100 µM (inactive); in the assay on HOP-62, > 100 µM (inactive); in the assay on HCT-15 it was above 100 µM; with NCI-H460, > 100 µM (inactive); in the assay on A498, > 100 µM (inactive). Moreover, the GI50 in the assay with MCF7, in the assay with K562, in the assay on A549, in the assay with UO-31, in the assay on OVCAR-5 and in the assay with SNB-75 was > 100 µM (inactive) in each case. Also, in the assay on SF-268, the GI50 was > 100 µM (inactive).
